Assay results: patent publication US20200009088A1, “COMPOSITIONS AND METHODS FOR TREATING ANDROGEN-INDEPENDENT CANCER” (The Regents of the University of California, priority 2017, published 2020)
Entries after “also recorded” stand apart in the source; their conditions may differ.

Assays:
C4-2B MDVR cells = assay: Cell growth assay (cell numbers), C4-2B MDVR; type: cell-based; conditions: for cell growth: increasing doses of niclosamide/analogs, FIG. 6; for synergy with abiraterone in inhibiting cell growth / synergy with enzalutamide in inhibiting cell growth: C4-2BMDVR, FIG. 10; for synergy with abiraterone in inhibiting cell growth: analog 0.25 μM + abiraterone 5 μM; for synergy with enzalutamide in inhibiting cell growth: analog 0.25 μM + enzalutamide 20 μM
CWR22Rv1 cells [1] = assay: Cell growth assay (cell numbers), CWR22Rv1; type: cell-based; conditions: for cell growth: CWR22Rv1, 48 hours, increasing doses of niclosamide/analogs, FIG. 6
AR-V7 [2] = molecular target: T1, AR-V7 (Homo sapiens, UniProt P10275); assay: Western blot of AR-V7 expression in CWR22Rv1 cell lysates; type: cell-based; set-up: endogenous in cells; host or cells: CWR22Rv1 prostate cancer cells (also grown as xenograft tumours); conditions: CWR22Rv1 cells, FIG. 2A
T1 sequence (P10275 1-644 isoform P10275-3): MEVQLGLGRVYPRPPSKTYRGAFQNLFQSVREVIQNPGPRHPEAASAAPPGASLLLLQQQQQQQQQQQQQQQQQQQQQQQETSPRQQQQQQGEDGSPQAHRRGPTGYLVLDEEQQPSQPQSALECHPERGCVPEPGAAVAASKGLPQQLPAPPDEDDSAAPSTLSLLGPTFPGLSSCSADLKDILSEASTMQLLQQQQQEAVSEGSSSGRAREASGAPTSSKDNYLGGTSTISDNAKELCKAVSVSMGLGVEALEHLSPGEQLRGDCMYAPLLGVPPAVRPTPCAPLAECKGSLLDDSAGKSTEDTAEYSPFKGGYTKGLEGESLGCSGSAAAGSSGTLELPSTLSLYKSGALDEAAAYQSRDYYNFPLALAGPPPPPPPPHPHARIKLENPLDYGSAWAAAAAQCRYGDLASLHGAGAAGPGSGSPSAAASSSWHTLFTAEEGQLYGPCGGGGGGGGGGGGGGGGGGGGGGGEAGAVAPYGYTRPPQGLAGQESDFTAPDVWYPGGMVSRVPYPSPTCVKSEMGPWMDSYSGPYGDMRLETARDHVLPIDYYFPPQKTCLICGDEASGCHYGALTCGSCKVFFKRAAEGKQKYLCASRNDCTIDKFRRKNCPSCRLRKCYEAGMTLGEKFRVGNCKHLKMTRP
Experimental: (§1) “AR-Variants” represents a combination of all forms of AR.
(§2) The effects of the synthetic small molecule modulators on AR and AR variant expression were determined. CWR22Ry1 prostate cancer cells were treated with different compounds. Protein lysates were analyzed for AR and AR variant expression.

CWR22Rv1 cells [3] = assay: Cell growth assay (cell numbers), CWR22Rv1; type: cell-based; conditions: for cell growth, combination with bicalutamide: CWR22Rv1, analog 0.25 μM + bicalutamide 20 μM, 0, 3, 5 days; for cell growth, combination with enzalutamide: CWR22Rv1, analog 0.25 μM + enzalutamide 20 μM, 0, 3, 5 days; for cell growth, combination with enzalutamide / cell growth, combination with abiraterone: FIGS. 9, 11; for cell growth, niclosamide analog alone: CWR22Rv1, analog 0.25 μM, 0, 3, 5 days, FIGS. 9, 11, 12; for synergy with abiraterone in inhibiting cell growth: CWR22Rv1, analog 0.25 μM + abiraterone 5 μM; for cell growth, combination with abiraterone: CWR22Rv1, analog 0.25 μM + abiraterone 5 μM, 0, 3, 5 days; for synergy with enzalutamide in inhibiting cell growth: CWR22Rv1, analog 0.25 μM + enzalutamide 20 μM
Experimental: DMSO treatment was used as a negative control. Total cell numbers were counted at 0, 3, and 5 days.
DMSO treatment was used as a negative control. Total cell numbers were counted at 0, 3, and 5 days. […]
The cell growth was determined at 3,5 days. […] The cell growth was determined at 3,5 days.

AR = assay: Western blot of AR expression in CWR22Rv1 cell lysates; type: cell-based; conditions: CWR22Rv1 cells, FIG. 2A
Experimental: as §1, §2

PSA = PSA protein expression by ELISA in C4-2 cells overexpressing AR-V7; type: cell-based; conditions: C4-2-V7 cells, FIG. 3
Experimental: PSA protein expression was determined by ELISA assay. * denotes p<0.05.

C4-2BMDVR cells = assay: ELISA cell death (apoptosis) assay; type: cell-based; conditions: FIG. 8
Experimental: To further examine the anti-cancer effects of these compounds, an ELISA cell death assay was performed.

AR-V7 [4] = molecular target: T1, AR-V7; assay: PSA-luc reporter in LNCaP cells co-transfected with AR-V7; conditions: LNCaP cells co-transfected with AR-V7, FIG. 4
Experimental: The luciferase activity was then determined. * denotes p<0.05.
In addition, the effects on AR transcriptional activity were determined using PSA-luc as a reporter. LNCaP cells were cotransfected with PSA-luc together with or without AR-V7, and treated with the compounds.

C4-2B AbiR cells = assay: Cell growth assay (cell numbers), C4-2B AbiR; type: cell-based; conditions: 0.5 μM + enzalutamide, 48 hours, FIG. 7C
C4-2-V7 cells = assay: Cell growth assay (cell numbers), C4-2-V7; type: cell-based; conditions: C4-2-V7, 0.5 μM + enzalutamide, 48 hours, FIG. 7D

| Structure (SMILES) | AR-V7 (AR variant) expression (AR-V7 [2]) | cell growth, combination with enzalutamide (CWR22Rv1 cells [3]) | cell growth, niclosamide analog alone (CWR22Rv1 cells [3]) | AR expression (AR) | synergy with abiraterone in inhibiting cell growth (CWR22Rv1 cells [3]) | cell growth, combination with abiraterone (CWR22Rv1 cells [3]) | further results |
| --- | --- | --- | --- | --- | --- | --- | --- |
| CNC(=O)c1ccc(N2C(=S)N(c3cnc(C#N)c(C(F)(F)F)c3)C(=O)C23CCC3)cc1F [ARN509, reference compound] |  |  |  |  |  |  | cell growth (C4-2B MDVR cells; C4-2B MDVR, 48 hours): did not inhibit; cell growth (CWR22Rv1 cells [1]): did not inhibit |
| O=C(Nc1ccc([N+](=O)[O-])cc1Cl)c1cccc(Cl)c1 [Compound 1] | no effect | nor the was the combination of these compounds with enzalutamide or abiraterone able to inhibit | Neither of Compounds 1 or 34 alone were able to inhibit; also recorded: None of Compounds 1, 7, 30, 31, or 34 alone were able to inhibit | no effect |  |  | synergy with abiraterone in inhibiting cell growth (C4-2B MDVR cells): neither Compound 1 nor Compound 34 were able to synergize; synergy with enzalutamide in inhibiting cell growth (C4-2B MDVR cells): neither Compound 1 nor Compound 34 were able to synergize; cell growth, combination with bicalutamide (CWR22Rv1 cells [3]; FIG. 12): not able to inhibit |
| O=C(Nc1ccc([N+](=O)[O-])cc1Cl)c1ccccc1O [Compound 2] | no effect | nor was a combination of either of these compounds with enzalutamide or abiraterone able to inhibit | neither Compounds 2 nor Compound 17 alone were able to inhibit | no effect | but not Compounds 2 and 17, were able to synergize | nor was a combination of either of these compounds with enzalutamide or abiraterone able to inhibit |  |
| O=C(Nc1cc(C(F)(F)F)cc(C(F)(F)F)c1)c1cc(Cl)ccc1O [Compound 5] | inhibited |  |  | inhibited |  |  |  |
| O=C(Nc1ccccc1Cl)c1cc(Cl)ccc1O [Compound 8] | no effect |  |  | no effect |  |  |  |
| O=C(Nc1cc(C(F)(F)F)cc(C(F)(F)F)c1)c1cc(Cl)ccc1O [Compound 11] |  | able to significantly inhibit |  |  | able to synergize | able to significantly inhibit | synergy with enzalutamide in inhibiting cell growth (CWR22Rv1 cells [3]): able to synergize |
| O=C(Nc1cc(F)cc(F)c1)c1cc(Cl)ccc1O [Compound 17] | no effect | nor was a combination of either of these compounds with enzalutamide or abiraterone able to inhibit | neither Compounds 2 nor Compound 17 alone were able to inhibit | no effect | but not Compounds 2 and 17, were able to synergize | nor was a combination of either of these compounds with enzalutamide or abiraterone able to inhibit |  |
| O=C(O)COc1ccc(Cl)cc1C(=O)Nc1ccc([N+](=O)[O-])cc1Cl [Compound 29] | no effect |  |  | no effect |  |  |  |
| CCC(=O)Oc1ccc(Cl)cc1C(=O)Nc1ccc([N+](=O)[O-])cc1Cl [Compound 30] | inhibited | significantly inhibited | None of Compounds 1, 7, 30, 31, or 34 alone were able to inhibit | inhibited | able to synergize | significantly inhibited | PSA expression (PSA; compound alone, ELISA): inhibited; enzalutamide-mediated PSA inhibition (PSA; in presence of enzalutamide (MDV)): further enhanced; cell apoptosis (C4-2BMDVR cells; compound alone, analogs compared with niclosamide): further enhanced; apoptotic cell death, combination with enzalutamide (MDV) (C4-2BMDVR cells; with enzalutamide): further increased; cell proliferation, combination with enzalutamide (MDV) (C4-2B MDVR cells; C4-2B MDVR, 0.5 μM + enzalutamide, 48 hours, FIG. 7B): further inhibited; synergy with abiraterone in inhibiting cell growth (C4-2B MDVR cells): able to synergize; synergy with enzalutamide in inhibiting cell growth (C4-2B MDVR cells): able to synergize; cell growth, combination with bicalutamide (CWR22Rv1 cells [3]; FIG. 12): able to significantly inhibit; synergy with bicalutamide in inhibiting cell growth (CWR22Rv1 cells [3]; CWR22Rv1, analog 0.25 μM + bicalutamide 20 μM, FIG. 12): able to synergize; synergy with enzalutamide in inhibiting cell growth (CWR22Rv1 cells [3]): able to synergize; cell proliferation, combination with enzalutamide (MDV) (CWR22Rv1 cells [1]; CWR22Rv1, 0.5 μM + enzalutamide, 48 hours, FIG. 7A): further inhibited; AR-V7 mediated PSA-luc activity (AR-V7 [4]): inhibited; cell proliferation, combination with enzalutamide (MDV) (C4-2B AbiR cells): further inhibited; cell proliferation, combination with enzalutamide (MDV) (C4-2-V7 cells): further inhibited |
| COC(=O)COc1ccc(Cl)cc1C(=O)Nc1ccc([N+](=O)[O-])cc1Cl [Compound 34] | no effect | nor the was the combination of these compounds with enzalutamide or abiraterone able to inhibit | Neither of Compounds 1 or 34 alone were able to inhibit; also recorded: None of Compounds 1, 7, 30, 31, or 34 alone were able to inhibit | no effect |  |  | synergy with abiraterone in inhibiting cell growth (C4-2B MDVR cells): neither Compound 1 nor Compound 34 were able to synergize; synergy with enzalutamide in inhibiting cell growth (C4-2B MDVR cells): neither Compound 1 nor Compound 34 were able to synergize; cell growth, combination with bicalutamide (CWR22Rv1 cells [3]; FIG. 12): not able to inhibit |
| CC(C)(C)OC(=O)COc1ccc(Cl)cc1C(=O)Nc1ccc([N+](=O)[O-])cc1Cl [Compound 35] | no effect |  |  | no effect |  |  |  |
| C[C@]12CC[C@H](O)CC1=CC[C@@H]1[C@@H]2CC[C@]2(C)C(c3cccnc3)=CC[C@@H]12 [abiraterone, reference compound] |  |  |  |  |  |  | cell growth (C4-2B MDVR cells; C4-2B MDVR, 48 hours): did not inhibit; cell growth (CWR22Rv1 cells [1]): did not inhibit |
| CNC(=O)c1ccc(N2C(=S)N(c3ccc(C#N)c(C(F)(F)F)c3)C(=O)C2(C)C)cc1F [enzalutamide, reference compound] |  |  |  |  |  |  | cell growth (C4-2B MDVR cells; C4-2B MDVR, 48 hours): did not inhibit; cell growth, antiandrogen alone (CWR22Rv1 cells [3]; CWR22Rv1, enzalutamide 20 μM or abiraterone 5 μM, 0, 3, 5 days, FIG. 9): resistant; cell growth (CWR22Rv1 cells [1]): did not inhibit |
